What was measured:
Assay type in all cases: in vivo
Conditions in all cases: Site No. 1 (control site; g active/ha): Pre-emergent Glyphosate 450, Ammonium sulphate 1.12 kg/ha
Wild Oat [1] = experiment: Example 6 field sites: visual % control of wild oat
Experimental: A study was conducted to test various application methods using flucarbazone-sodium (PREPARE) in a pre-emergent application followed by post-emergent application with clodinafop (DISCOVER® NG), pinoxaden (AXIAL™ XL) and flucarbazone-sodium (EVEREST®) for control of wild oat.
To better evaluate the ability of each treatment scheme in controlling unwanted vegetation in a planting site, a group of nearly identical crop planting sites (Site 1-Site 7) were subjected to different treatment schemes. Site No. 1 was to act as a control site and Site No. 2-Sites No. 7 were treated with a pre-emergent treatment or sequential pre-emergent and post-emergent treatment schemes. Treatment rates were based on the recommended rate provided on the product label (grams of active ingredient per hectare). Since the label provides a range, the rate applied is based on the lower recommended rate from the label range. […]
Site No. 1 was not treated with a pre-emergent or a post-emergent application of a herbicidally active compound according to embodiments of the present invention, allowing wild oat to emerge either with the crop or after crop emergence. […] Thus, percent control for wild oat was evaluated as the weed-free area in the particular site in comparison to the completely weed covered Site No. 1. […]

Bromus secalinus = experiment: Example 7 field sites: visual % control of Cheat (Bromus secalinus)
Experimental: (§1) Another study was conducted to test various application methods using flucarbazone-sodium (PREPARE) in a pre-emergent application followed by post-emergent application with propoxycarbazone (OLYMPUS®), pyroxsulam (Simplicity®), sulfosulfuron ([…]®), pinoxaden (AXIAL™ XL) and flucarbazone-sodium (EVEREST®) to control Bromus secalinus and Foxtail Barley.
(§2) To better evaluate the ability of each treatment scheme in controlling unwanted vegetation in a planting site, a group of nearly identical crop planting sites (Site 1-Site 10) were subjected to different treatment schemes. Again, Site No. 1 was a control site. Sites No. 2-Sites No. 10 were treated with either a pre-emergent treatment or sequential pre-emergent and post-emergent treatment schemes. Treatment rates were based on the recommended lower rate provided on the product label (grams of active ingredient per hectare). […]
(§3) Site No. 1 was not treated with a pre-emergent treatment or a post-emergent treatment, allowing Bromus secalinus and Foxtail Barley to emerge either with the crop or after crop emergence. […] Thus, percent control for Bromus secalinus and Foxtail Barley were evaluated as the weed-free area in the particular site in comparison to the completely weed covered Site No. 1. […]

Foxtail Barley = experiment: Example 7 field sites: visual % control of Foxtail Barley
Experimental: as §1, §2, §3

Wild Oat [2] = experiment: Example 8 field sites: visual % control of Wild Oat
Experimental: as §1, with “(PrePare)” for “(PREPARE)”, “(SIMPLICITY®),” for “(Simplicity®),”, “Wild Oat.” for “Bromus secalinus and Foxtail Barley.”
as §2, with “schemes.” for “schemes. Again,”, “was again” for “was”, “site and sites” for “site. Sites”, “varying” for “either a pre-emergent treatment or sequential pre-emergent and post-emergent”, “Again, the treatment” for “Treatment”
Site No. 1 was not treated with a pre-emergent application or post-emergent application of herbicidally active compounds, allowing Wild Oat to emerge either with the crop or after crop emergence. […] Thus, percent control for Wild Oat was evaluated as the weed-free area in the particular site in comparison to the completely weed covered Site No. 1. Further, the respective crop yield for each crop planting site was also recorded. […]

crop = system: crop
Experimental: Site No. 1 was again a control site and sites No. 2-Sites No. 10 were treated with varying treatment schemes. […] In all sites, any pre-existing weeds that germinated and grew to cover the sites were removed with glyphosate to ensure a more accurate determination of the viability of each treatment scheme. For Site No. 2-Site No. 10, glyphosate was tank-mixed with PREPARE and applied to each site prior to the emergence of the desired crop.
The remaining sites were allowed the same amount of time for weed growth and were visually compared to crop planting site (Site No. 1). […] Further, the respective crop yield for each crop planting site was also recorded.
Ammonium sulphate is a commercially available fertilizer blend used as an adjuvant to improve performance of glyphosate.

O=C(O)CNCP(=O)(O)O [Glyphosate, glyphosate]
% Control of Wild Oat at 89 days after application (Wild Oat [1]): 0%
% Control of Cheat (Bromus secalinus) at 86 days after application (Bromus secalinus): 5%
% Control of Foxtail Barley at 86 days after application (Foxtail Barley): 0%
% Control of Wild Oat at 86 days after application (Wild Oat [2]): 27%
Crop Yield (crop): 20.1 Bu./Acre
